Efflux ratio and P-gp substrate assessment data for 1 compound are collected here from article PMC11435065, “Inhibition of P-Glycoprotein Asymmetrically Alters the In Vivo Exposure Profile of SGC003F: A Novel Guanylate Cyclase Stimulator” (Pharmaceuticals, 2024).

Read-outs that look alike come from different tables or passages of the source.

The nature of data set [1]: Bidirectional transport across Caco-2 monolayer cells. Format: in vitro ADME. Particulars: human, Caco-2 cells, read-out: ER value (efflux ratio). The method, then: (§1) LLC-PK1-MDR1, LLC-PK1-MOCK, and Caco-2 cells were seeded in 24-well Transwell cell plates at optimized densities. The medium was changed every other day for the LLC-PK1 cells and every day for the Caco-2 cells. The LLC-PK1 cells were cultured continuously for 4–7 days, while the Caco-2 cells were cultured continuously for 28–35 days in preparation for transport experiments. Prior to the experiment, TEER (transepithelial electrical resistance) values were measured using a cell resistance meter. For electrical measurements, two electrodes were used, with one electrode placed in the upper compartment and the other in the lower compartment and the electrodes were separated by the cellular monolayer. The measurement procedure included measuring the blank resistance (Rblank) of the semipermeable membrane only (without cells) and measuring the resistance across the cell layer on the semipermeable membrane (Rtotal). TEER values were achieved by calculating as TEER = (Rtotal − Rblank) × Marea in the unit of Ω·cm^2. […]
(§2) The apparent permeability rate value (Papp) of the monolayer cells was calculated according to Equation (5) Papp = (dQ/dt)/(A × C0)(5) where dQ/dt is the transport rate (µmol·s^−1); A is the insert surface area (0.33 cm^2); C0 is the initial concentration of the compound (µM).
(§3) Efflux rate (ER) was calculated according to Equation (6):ER = Papp B-A/PappA-B(6)

Data set [2] deals with T1, P-gp (human MDR1) (Homo sapiens, UniProt P08183).
T1 construct: expressed in transfected cells; host or cells: LLC-PK1 cells stably expressing human MDR1 (gift of Professor Qingcheng Mao, University of Washington)
Description: Bidirectional transport across LLC-PK1-MDR1 monolayer cells with or without tariquidar. The class given is in vitro ADME. The conditions noted are these: for efflux ratio at 2 h, 2 µM: human, read-out: ER value (efflux ratio).
Description: Cell lines: LLC-PK1 cells with stable-expressing human MDR1 and mock-transfected with empty vector (LLC-PK1-MOCK) were gifted by the lab of Professor Qingcheng Mao (University of Washington, Seattle, WA, USA). The culture medium of the LLC-PK1-MOCK and LLC-PK1-MDR1 cells was 1640 medium containing 10% FBS and 100 U/mL PS. The Caco-2 cells were purchased from ADCC. The Caco-2 cell culture medium was DMEM high-glucose medium (containing 10% FBS, 1% non-essential amino acid solution, 100 U/mL PS). Both cell lines were cultured at 37 °C in a cell incubator containing 5% CO2.
as §1, with “Ω·cm^2. The monolayer integrity was guaranteed by determining the TEER before and after the bidirectional transport experiments.” for “Ω·cm^2.”
as §2, §3

T1 sequence (P08183 whole entry): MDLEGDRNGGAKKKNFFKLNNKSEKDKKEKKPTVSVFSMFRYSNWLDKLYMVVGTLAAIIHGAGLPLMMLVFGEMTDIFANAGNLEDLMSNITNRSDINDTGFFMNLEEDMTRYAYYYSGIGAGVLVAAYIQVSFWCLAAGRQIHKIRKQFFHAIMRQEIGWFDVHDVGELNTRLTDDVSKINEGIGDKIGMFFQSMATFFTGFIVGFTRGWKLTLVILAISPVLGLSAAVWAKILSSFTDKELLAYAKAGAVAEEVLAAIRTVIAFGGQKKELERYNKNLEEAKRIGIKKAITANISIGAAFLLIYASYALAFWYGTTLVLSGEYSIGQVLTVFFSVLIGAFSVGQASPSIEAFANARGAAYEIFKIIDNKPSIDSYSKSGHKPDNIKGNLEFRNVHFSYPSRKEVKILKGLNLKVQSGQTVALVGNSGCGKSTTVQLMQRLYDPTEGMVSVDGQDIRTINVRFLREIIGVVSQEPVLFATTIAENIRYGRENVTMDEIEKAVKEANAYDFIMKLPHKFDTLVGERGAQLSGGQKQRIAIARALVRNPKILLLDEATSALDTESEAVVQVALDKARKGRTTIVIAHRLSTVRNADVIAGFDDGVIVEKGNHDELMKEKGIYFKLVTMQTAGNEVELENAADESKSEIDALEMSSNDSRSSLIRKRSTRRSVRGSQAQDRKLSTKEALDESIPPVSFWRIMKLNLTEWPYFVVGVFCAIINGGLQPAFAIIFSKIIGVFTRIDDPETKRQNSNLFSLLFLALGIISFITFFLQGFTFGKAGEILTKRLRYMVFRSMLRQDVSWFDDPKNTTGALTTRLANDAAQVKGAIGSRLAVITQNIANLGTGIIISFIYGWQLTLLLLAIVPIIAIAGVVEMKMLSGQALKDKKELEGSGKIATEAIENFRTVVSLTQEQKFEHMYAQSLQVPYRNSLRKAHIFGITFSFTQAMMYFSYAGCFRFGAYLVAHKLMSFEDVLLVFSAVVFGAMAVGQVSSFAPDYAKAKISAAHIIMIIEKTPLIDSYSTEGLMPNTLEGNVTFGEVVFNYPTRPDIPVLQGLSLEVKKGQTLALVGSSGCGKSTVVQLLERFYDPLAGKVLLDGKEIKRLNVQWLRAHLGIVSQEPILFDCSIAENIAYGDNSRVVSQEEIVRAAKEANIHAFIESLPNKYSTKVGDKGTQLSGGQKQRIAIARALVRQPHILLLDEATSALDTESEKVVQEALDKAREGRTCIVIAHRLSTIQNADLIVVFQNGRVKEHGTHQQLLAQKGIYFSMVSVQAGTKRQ

For `COC(=O)Nc1c(N)nc(-c2nn(Cc3sccc3F)c3ncc(F)cc23)nc1N` [SGC003F], the efflux ratio at 2 h, 2 µM in data set [1] amounted to 7.2; in data set [2] (LLC-PK1, LLC-PK1-MDR1 cells, without tariquidar), 6.71; in data set [2] (LLC-PK1, with tariquidar 5 µM, LLC-PK1-MDR1 cells, with tariquidar 5 µM), 1.28. Further, the P-gp substrate assessment entry in data set [2] (LLC-PK1-MDR1 vs LLC-PK1-MOCK, with/without tariquidar) is “substrate for P-gp”.
